Assay results published in PMC11012124, “Synthesis of Novel Triazine-Based Chalcones and 8,9-dihydro-7H-pyrimido[4,5-b][1,4]diazepines as Potential Leads in the Search of Anticancer, Antibacterial and Antifungal Agents” (International Journal of Molecular Sciences, 2024).

Experiments:
[1] = Hemolytic activity, spectrophotometric; format: cell-based, human; settings: human, human red blood cells (huRBC), 5% hematocrit, 200 μg/mL, 37 °C
CCRF-CEM = experiment: cells; settings: Homo sapiens, 48 h; for CC50: read-out: LC50
HL-60(TB) = experiment: cells; settings: Homo sapiens, HL-60, 48 h; for CC50: read-out: LC50
K-562 = experiment: cells; settings: Homo sapiens, K562, 48 h; for GI50: K-562, 48 h; for CC50: read-out: LC50
SR = experiment: cells; settings: Homo sapiens, 48 h; for CC50: read-out: LC50
NCI-H460 = experiment: cells; settings: Homo sapiens, NCI-H460, 48 h; for CC50: read-out: LC50
NCI-H522 = experiment: cells; settings: Homo sapiens, NCI-H522, 48 h; for CC50: read-out: LC50
KM12 = experiment: cells; settings: Homo sapiens, KM12, 48 h; for CC50: read-out: LC50
SW-620 = experiment: cells; settings: Homo sapiens, SW-620, 48 h; for CC50: read-out: LC50
MALME-3M = experiment: cells; settings: Homo sapiens, 48 h; for CC50: read-out: LC50
MDA-MB-435 = experiment: cells; settings: Homo sapiens, MDA-MB-435, 48 h; for CC50: read-out: LC50
SK-MEL-2 = experiment: cells; settings: Homo sapiens, SK-MEL-2, 48 h; for CC50: read-out: LC50
SK-MEL-28 = experiment: cells; settings: Homo sapiens, SK-MEL-28, 48 h; for CC50: read-out: LC50
IGROV1 = experiment: cells; settings: Homo sapiens, IGROV-1, 48 h; for CC50: read-out: LC50
OVCAR-4 = experiment: cells; settings: Homo sapiens, OVCAR-4, 48 h; for CC50: read-out: LC50
OVCAR-5 = experiment: cells; settings: Homo sapiens, OVCAR-5, 48 h; for CC50: read-out: LC50
OVCAR-8 = experiment: cells; settings: Homo sapiens, OVCAR-8, 48 h; for CC50: read-out: LC50
NCI/ADR-RES = experiment: cells; settings: Homo sapiens, 48 h; for CC50: read-out: LC50
SK-OV-3 = experiment: cells; settings: Homo sapiens, SK-OV-3, 48 h; for CC50: read-out: LC50
CAKI-1 = experiment: cells; settings: Homo sapiens, CAKI-1, 48 h; for CC50: read-out: LC50
SN12C = experiment: cells; settings: Homo sapiens, 48 h; for CC50: read-out: LC50
TK-10 = experiment: cells; settings: Homo sapiens, TK-10, 48 h; for CC50: read-out: LC50
DU-145 = experiment: cells; settings: Homo sapiens, DU-145, 48 h; for CC50: read-out: LC50
MCF7 = experiment: cells; settings: Homo sapiens, MCF7, 48 h; for CC50: read-out: LC50
T-47D = experiment: cells; settings: Homo sapiens, T47D, 48 h; for CC50: read-out: LC50
[2] = test system: N. gonorrhoeae ATCC 49226; experiment: MIC on GC agar plates; format: cell-based, Neisseria gonorrhoeae; settings: Neisseria gonorrhoeae, ATCC49226, read-out: MIC
In short: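 Agar dilution was used: GC agar with 1% IsoVitaleX containing increasing compound concentrations was inoculated with 1 × 10^4 CFU. The MIC was taken as the lowest concentration inhibiting growth, with growth confirmed by oxidase test, in duplicate across at least two independent experiments.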

## COc1cc(/C=C/C(=O)c2ccc(C)cc2)ccc1Oc1nc(Nc2ccc(F)cc2)nc(N(C)C)n1 [21b]
[1]
  hemolysis at 24 h, 200 µg/mL: 13%
CCRF-CEM
  GI50: 3.92 µM
  CC50: > 100 µM
HL-60(TB)
  GI50: 19.1 µM
  CC50: > 100 µM
K-562
  GI50: 4.2 µM
  CC50: > 100 µM
SR
  GI50: 3.25 µM
  CC50: > 100 µM
NCI-H460
  GI50: 12.1 µM
  CC50: > 100 µM
NCI-H522
  GI50: 9.76 µM
  CC50: > 100 µM
KM12
  GI50: 19.3 µM
  CC50: > 100 µM
SW-620
  GI50: 2.36 µM
  CC50: 20.1 µM
MALME-3M
  GI50: 15.4 µM
  CC50: 72.3 µM
MDA-MB-435
  GI50: 11.4 µM
  CC50: 70.4 µM
SK-MEL-2
  GI50: 8.83 µM
  CC50: > 100 µM
SK-MEL-28
  GI50: 12.3 µM
  CC50: 79.6 µM
IGROV1
  GI50: 13.8 µM
  CC50: 99.1 µM
OVCAR-4
  GI50: 7.94 µM
  CC50: > 100 µM
OVCAR-5
  GI50: 16.5 µM
  CC50: > 100 µM
OVCAR-8
  GI50: 7.19 µM
  CC50: > 100 µM
NCI/ADR-RES
  GI50: 5.97 µM
  CC50: > 100 µM
SK-OV-3
  GI50: 48.9 µM
  CC50: > 100 µM
CAKI-1
  GI50: 6.43 µM
  CC50: > 100 µM
SN12C
  GI50: 3.89 µM
  CC50: 73 µM
TK-10
  GI50: 18.2 µM
  CC50: > 100 µM
DU-145
  GI50: 25.8 µM
  CC50: > 100 µM
MCF7
  GI50: 3.57 µM
  CC50: > 100 µM
T-47D
  GI50: 3.57 µM
  CC50: > 100 µM

## COc1cc(/C=C/C(=O)c2ccccc2)ccc1Oc1nc(Nc2ccc(F)cc2)nc(N(C)C)n1 [21a]
[1]
  hemolysis at 24 h, 200 µg/mL: 2%
CCRF-CEM
  GI50: 3.38 µM
  CC50: > 100 µM
HL-60(TB)
  GI50: 8.37 µM
  CC50: > 100 µM
K-562
  GI50: 3.57 µM
  CC50: > 100 µM
SR
  GI50: 2.9 µM
  CC50: > 100 µM
NCI-H460
  GI50: 9.14 µM
  CC50: 93.2 µM
NCI-H522
  GI50: 5.15 µM
  CC50: > 100 µM
KM12
  GI50: 14.9 µM
  CC50: > 100 µM
SW-620
  GI50: 1.81 µM
  CC50: 8.7 µM
MALME-3M
  GI50: 15.9 µM
  CC50: 98.8 µM
MDA-MB-435
  GI50: 7.39 µM
  CC50: 94.3 µM
SK-MEL-2
  GI50: 4.68 µM
  CC50: 63.1 µM
SK-MEL-28
  GI50: 12.2 µM
  CC50: 84.6 µM
IGROV1
  GI50: 18.7 µM
  CC50: > 100 µM
OVCAR-4
  GI50: 5.85 µM
  CC50: > 100 µM
OVCAR-5
  GI50: 13.9 µM
  CC50: > 100 µM
OVCAR-8
  GI50: 5.9 µM
  CC50: 97.6 µM
NCI/ADR-RES
  GI50: 7.04 µM
  CC50: 58.5 µM
SK-OV-3
  GI50: 48.6 µM
  CC50: > 100 µM
CAKI-1
  GI50: 5.72 µM
  CC50: > 100 µM
SN12C
  GI50: 7.32 µM
  CC50: 54.5 µM
TK-10
  GI50: 18 µM
  CC50: > 100 µM
DU-145
  GI50: 27.3 µM
  CC50: > 100 µM
MCF7
  GI50: 3.08 µM
  CC50: 78.2 µM
T-47D
  GI50: 3.36 µM
  CC50: > 100 µM

## COc1cc(/C=C/C(=O)c2ccc(S(=O)(=O)NCCNc3nc(N(C)C)nc(N4CCOCC4)n3)cc2)cc(OC)c1OC [23d]
[2]
  MIC: > 500 µg/mL
[1]
  hemolysis at 24 h, 200 µg/mL: 0.2%
CCRF-CEM
  GI50: 2.07 µM
  CC50: > 100 µM
HL-60(TB)
  GI50: 1.97 µM
  CC50: > 100 µM
K-562
  GI50: 1.46 µM
  CC50: > 100 µM
SR
  GI50: 1.88 µM
  CC50: > 100 µM
NCI-H460
  GI50: 3.17 µM
  CC50: 59 µM
NCI-H522
  GI50: 1.66 µM
  CC50: 6.37 µM
KM12
  GI50: 1.7 µM
  CC50: 6.52 µM
SW-620
  GI50: 1.9 µM
  CC50: 7.42 µM
MALME-3M
  GI50: 1.97 µM
  CC50: 9.42 µM
MDA-MB-435
  GI50: 1.9 µM
  CC50: 8.46 µM
SK-MEL-2
  GI50: 10.7 µM
  CC50: 48.9 µM
SK-MEL-28
  GI50: 2.12 µM
  CC50: 13 µM
IGROV1
  GI50: 2.6 µM
  CC50: 50.1 µM
OVCAR-4
  GI50: 2.21 µM
  CC50: 24.8 µM
OVCAR-5
  GI50: 2.83 µM
  CC50: 33.7 µM
OVCAR-8
  GI50: 2.3 µM
  CC50: 36.5 µM
SK-OV-3
  GI50: 14.3 µM
  CC50: 52.7 µM
CAKI-1
  GI50: 10.6 µM
  CC50: 51 µM
SN12C
  GI50: 2.72 µM
  CC50: 38.1 µM
TK-10
  GI50: 13.1 µM
  CC50: 50.8 µM
DU-145
  GI50: 3.31 µM
  CC50: 34.1 µM
MCF7
  GI50: 1.64 µM
  CC50: 9.66 µM
T-47D
  GI50: 5.74 µM
  CC50: 71.5 µM

## COc1cc(/C=C/C(=O)c2ccc(C)cc2)ccc1Oc1nc(NCCO)nc(N2CCOCC2)n1 [20b]
[1]
  hemolysis at 24 h, 200 µg/mL: 3.3%
CCRF-CEM
  GI50: 2.71 µM
  CC50: > 100 µM
HL-60(TB)
  GI50: 2.07 µM
  CC50: > 100 µM
K-562
  GI50: 1.53 µM
  CC50: > 100 µM
SR
  GI50: 1.06 µM
  CC50: > 100 µM
NCI-H460
  GI50: 2.2 µM
  CC50: > 100 µM
NCI-H522
  GI50: 1.56 µM
KM12
  GI50: 1.85 µM
SW-620
  GI50: 1.64 µM
  CC50: > 100 µM
MALME-3M
  GI50: 2.29 µM
  CC50: > 100 µM
MDA-MB-435
  GI50: 3.31 µM
  CC50: > 100 µM
SK-MEL-2
  GI50: 8.17 µM
  CC50: > 100 µM
SK-MEL-28
  GI50: 2.5 µM
  CC50: > 100 µM
IGROV1
  GI50: 3.1 µM
  CC50: > 100 µM
OVCAR-4
  GI50: 3.92 µM
  CC50: > 100 µM
OVCAR-5
  GI50: 3.22 µM
  CC50: > 100 µM
OVCAR-8
  GI50: 1.76 µM
NCI/ADR-RES
  GI50: 2.08 µM
  CC50: > 100 µM
SK-OV-3
  GI50: 23 µM
  CC50: > 100 µM
CAKI-1
  GI50: 5.02 µM
  CC50: > 100 µM
SN12C
  GI50: 2.35 µM
  CC50: > 100 µM
TK-10
  GI50: > 100 µM
  CC50: > 100 µM
DU-145
  GI50: 3.79 µM
  CC50: > 100 µM
MCF7
  GI50: 1.5 µM
  CC50: > 100 µM
T-47D
  GI50: 2.98 µM
  CC50: > 100 µM

## Nc1nc(N)c2c(n1)NC(c1ccc(Cl)cc1)CC(c1ccc(Nc3nc(NCCO)nc(Nc4ccc(Cl)cc4)n3)cc1)=N2 (centres unmarked) [33e]
[1]
  hemolysis at 24 h, 200 µg/mL: 1.2%
CCRF-CEM
  GI50: 1.14 µM
  CC50: > 100 µM
HL-60(TB)
  GI50: 1.15 µM
  CC50: > 100 µM
K-562
  GI50: 0.71 µM
  CC50: > 100 µM
SR
  GI50: 0.91 µM
  CC50: > 100 µM
NCI-H460
  GI50: 1.72 µM
  CC50: 6.42 µM
NCI-H522
  GI50: 1.56 µM
  CC50: 6.41 µM
KM12
  GI50: 3.18 µM
  CC50: > 100 µM
SW-620
  GI50: 1.62 µM
  CC50: 6.72 µM
MALME-3M
  GI50: 1.75 µM
MDA-MB-435
  GI50: 1.63 µM
  CC50: 6.2 µM
SK-MEL-2
  GI50: 1.45 µM
  CC50: 5.53 µM
SK-MEL-28
  GI50: 1.73 µM
  CC50: 5.61 µM
IGROV1
  GI50: 1.71 µM
  CC50: 7.46 µM
OVCAR-4
  GI50: 1.96 µM
  CC50: 32.7 µM
OVCAR-5
  GI50: 4.48 µM
  CC50: 74 µM
OVCAR-8
  GI50: 1.57 µM
  CC50: 6.81 µM
NCI/ADR-RES
  GI50: 4.24 µM
  CC50: > 100 µM
SK-OV-3
  GI50: 14.8 µM
  CC50: 58.3 µM
CAKI-1
  GI50: 5.36 µM
  CC50: > 100 µM
SN12C
  GI50: 1.95 µM
TK-10
  GI50: 10.6 µM
  CC50: 60.4 µM
DU-145
  GI50: 2.22 µM
  CC50: 22.8 µM
MCF7
  GI50: 1.2 µM
  CC50: 5.47 µM
T-47D
  GI50: 1.71 µM
  CC50: 54.6 µM
